Test results: the supplement of paper PMC10307832

How the values were obtained:
Assay in all cases: relative viability (nuclei count vs DMSO), 5 days (fraction); higher = more cells survive
[1] = compound: CS(=O)(=O)c1ccc(C(=O)Nc2ccc(Cl)c(-c3ccccn3)c2)c(Cl)c1 [Vismodegib] + Cc1nc(Nc2ncc(C(=O)Nc3c(C)cccc3Cl)s2)cc(N2CCN(CCO)CC2)n1 [Dasatinib] (partner 0.075 µM)
Summary of the method: (§1)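 Relative viability was taken as the ratio of nuclei in treated wells to nuclei in vehicle wells. Lung cancer cell lines in 1536-well plates received compounds by pin tool one day after seeding, either one drug alone or a fixed anchor-drug dose plus five library-drug doses (not always all listed) in √10 steps. Nuclei were counted on 4× images after 5 days of treatment, and values are medians of duplicate plates.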

[2] = compound: CS(=O)(=O)c1ccc(-c2cnc(N)c(C(=O)Nc3ccccc3)n2)cc1 [VE-821] + O=C(c1cc(Cc2n[nH]c(=O)c3ccccc23)ccc1F)N1CCN(C(=O)C2CC2)CC1 [Olaparib] (partner 8 µM)
Summary of the method: as §1

[3] = compound: CS(=O)(=O)c1ccc(C(=O)Nc2ccc(Cl)c(-c3ccccn3)c2)c(Cl)c1 [Vismodegib] + NC(=O)Nc1cc(-c2cccc(F)c2)sc1C(=O)N[C@H]1CCCNC1 [AZD7762] (partner 0.2 µM)
Summary of the method: as §1

[4] = compound: CS(=O)(=O)c1ccc(C(=O)Nc2ccc(Cl)c(-c3ccccn3)c2)c(Cl)c1 [Vismodegib] + CS(=O)(=O)N1CCN(Cc2cc3nc(-c4cccc5[nH]ncc45)nc(N4CCOCC4)c3s2)CC1 [Pictilisib] (partner 1 µM)
Summary of the method: as §1

## NCI-H838
[1]; first compound 0.08 µM
  relative viability: 0.213
[1]; first compound 0.253 µM
  relative viability: 0.275
[1]; first compound 0.8 µM
  relative viability: 0.303
[1]; first compound 2.53 µM
  relative viability: 0.285
[1]; first compound 8 µM
  relative viability: 0.319
[2]; first compound 0.08 µM
  relative viability: 0.866
[2]; first compound 0.253 µM
  relative viability: 0.856
[2]; first compound 0.8 µM
  relative viability: 0.765
[2]; first compound 2.53 µM
  relative viability: 0.638
[2]; first compound 8 µM
  relative viability: 0.365
[3]; first compound 0.08 µM
  relative viability: 0.799
[3]; first compound 0.253 µM
  relative viability: 0.876
[3]; first compound 0.8 µM
  relative viability: 0.918
[3]; first compound 2.53 µM
  relative viability: 0.888
[3]; first compound 8 µM
  relative viability: 0.975
[4]; first compound 0.08 µM
  relative viability: 0.389
[4]; first compound 0.253 µM
  relative viability: 0.408
[4]; first compound 0.8 µM
  relative viability: 0.415
[4]; first compound 2.53 µM
  relative viability: 0.489
[4]; first compound 8 µM
  relative viability: 0.504

## NCI-H1355
[1]; first compound 0.08 µM
  relative viability: 0.686
[1]; first compound 0.253 µM
  relative viability: 0.723
[1]; first compound 0.8 µM
  relative viability: 0.591
[1]; first compound 2.53 µM
  relative viability: 0.771
[1]; first compound 8 µM
  relative viability: 0.689
[2]; first compound 0.08 µM
  relative viability: 0.822
[2]; first compound 0.253 µM
  relative viability: 0.719
[2]; first compound 0.8 µM
  relative viability: 0.66
[2]; first compound 2.53 µM
  relative viability: 0.716
[2]; first compound 8 µM
  relative viability: 0.351
[3]; first compound 0.08 µM
  relative viability: 0.763
[3]; first compound 0.253 µM
  relative viability: 0.694
[3]; first compound 0.8 µM
  relative viability: 0.806
[3]; first compound 2.53 µM
  relative viability: 0.744
[3]; first compound 8 µM
  relative viability: 0.722
[4]; first compound 0.08 µM
  relative viability: 0.391
[4]; first compound 0.253 µM
  relative viability: 0.508
[4]; first compound 0.8 µM
  relative viability: 0.31
[4]; first compound 2.53 µM
  relative viability: 0.432
[4]; first compound 8 µM
  relative viability: 0.448

## NCI-H1395
[1]; first compound 0.08 µM
  relative viability: 0.385
[1]; first compound 0.253 µM
  relative viability: 0.389
[1]; first compound 0.8 µM
  relative viability: 0.398
[1]; first compound 2.53 µM
  relative viability: 0.417
[1]; first compound 8 µM
  relative viability: 0.414
[2]; first compound 0.08 µM
  relative viability: 0.422
[2]; first compound 0.253 µM
  relative viability: 0.49
[2]; first compound 0.8 µM
  relative viability: 0.481
[2]; first compound 2.53 µM
  relative viability: 0.441
[2]; first compound 8 µM
  relative viability: 0.438
[3]; first compound 0.08 µM
  relative viability: 0.42
[3]; first compound 0.253 µM
  relative viability: 0.397
[3]; first compound 0.8 µM
  relative viability: 0.412
[3]; first compound 2.53 µM
  relative viability: 0.455
[3]; first compound 8 µM
  relative viability: 0.41
[4]; first compound 0.08 µM
  relative viability: 0.573
[4]; first compound 0.253 µM
  relative viability: 0.593
[4]; first compound 0.8 µM
  relative viability: 0.491
[4]; first compound 2.53 µM
  relative viability: 0.631
[4]; first compound 8 µM
  relative viability: 0.752

## NCI-H1437
[1]; first compound 0.08 µM
  relative viability: 0.313
[1]; first compound 0.253 µM
  relative viability: 0.372
[1]; first compound 0.8 µM
  relative viability: 0.402
[1]; first compound 2.53 µM
  relative viability: 0.328
[1]; first compound 8 µM
  relative viability: 0.377
[2]; first compound 0.08 µM
  relative viability: 0.66
[2]; first compound 0.253 µM
  relative viability: 0.739
[2]; first compound 0.8 µM
  relative viability: 0.628
[2]; first compound 2.53 µM
  relative viability: 0.525
[2]; first compound 8 µM
  relative viability: 0.386
[3]; first compound 0.08 µM
  relative viability: 1.02
[3]; first compound 0.253 µM
  relative viability: 1.11
[3]; first compound 0.8 µM
  relative viability: 1.1
[3]; first compound 2.53 µM
  relative viability: 1.02
[3]; first compound 8 µM
  relative viability: 1.02
[4]; first compound 0.08 µM
  relative viability: 0.504
[4]; first compound 0.253 µM
  relative viability: 0.487
[4]; first compound 0.8 µM
  relative viability: 0.47
[4]; first compound 2.53 µM
  relative viability: 0.536
[4]; first compound 8 µM
  relative viability: 0.483

## NCI-H1651
[1]; first compound 0.08 µM
  relative viability: 0.434
[1]; first compound 0.253 µM
  relative viability: 0.446
[1]; first compound 0.8 µM
  relative viability: 0.388
[1]; first compound 2.53 µM
  relative viability: 0.349
[1]; first compound 8 µM
  relative viability: 0.591
[2]; first compound 0.08 µM
  relative viability: 0.187
[2]; first compound 0.253 µM
  relative viability: 0.204
[2]; first compound 0.8 µM
  relative viability: 0.19
[2]; first compound 2.53 µM
  relative viability: 0.163
[2]; first compound 8 µM
  relative viability: 0.165
[3]; first compound 0.08 µM
  relative viability: 0.512
[3]; first compound 0.253 µM
  relative viability: 0.454
[3]; first compound 0.8 µM
  relative viability: 0.535
[3]; first compound 2.53 µM
  relative viability: 0.36
[3]; first compound 8 µM
  relative viability: 0.433
[4]; first compound 0.08 µM
  relative viability: 0.579
[4]; first compound 0.253 µM
  relative viability: 0.549
[4]; first compound 0.8 µM
  relative viability: 0.523
[4]; first compound 2.53 µM
  relative viability: 0.54
[4]; first compound 8 µM
  relative viability: 0.637

## NCI-H1666
[1]; first compound 0.08 µM
  relative viability: 0.73
[1]; first compound 0.253 µM
  relative viability: 0.777
[1]; first compound 0.8 µM
  relative viability: 0.816
[1]; first compound 2.53 µM
  relative viability: 0.841
[1]; first compound 8 µM
  relative viability: 0.734
[2]; first compound 0.08 µM
  relative viability: 0.758
[2]; first compound 0.253 µM
  relative viability: 0.742
[2]; first compound 0.8 µM
  relative viability: 0.839
[2]; first compound 2.53 µM
  relative viability: 0.944
[2]; first compound 8 µM
  relative viability: 0.79
[3]; first compound 0.08 µM
  relative viability: 0.878
[3]; first compound 0.253 µM
  relative viability: 0.772
[3]; first compound 0.8 µM
  relative viability: 0.882
[3]; first compound 2.53 µM
  relative viability: 0.751
[3]; first compound 8 µM
  relative viability: 0.827
[4]; first compound 0.08 µM
  relative viability: 0.341
[4]; first compound 0.253 µM
  relative viability: 0.41
[4]; first compound 0.8 µM
  relative viability: 0.42
[4]; first compound 2.53 µM
  relative viability: 0.434
[4]; first compound 8 µM
  relative viability: 0.537
